Measured values taken from ChEMBL document CHEMBL5303304, “EUbOPEN Chemogenomics Library - IncuCyte” (2023).

Assays:
Format in all cases: toxicity, cell-based
HEK-293T = assay: Incucyte cell viability with HEK293T; settings: human, 10 µM, compound concentration 10 uM
U2OS = assay: Incucyte cell viability with U2OS; settings: human, 10 µM, compound concentration 10 uM
Fibroblast = assay: Incucyte cell viability with human fibroblast; settings: 10 µM, compound concentration 10 uM
Note: unitless GR value; below 1 slowed growth and below 0 cell loss.

Row | Structure (SMILES) | Growth Rate (U2OS; 0 h, replicate number 1) | Growth Rate (U2OS; 6 h, replicate number 1) | Growth Rate (U2OS; 6 h, replicate number 2) | Growth Rate (U2OS; 12 h, replicate number 1) | Growth Rate (U2OS; 12 h, replicate number 2) | Growth Rate (U2OS; 18 h, replicate number 2) | Growth Rate (U2OS; 24 h, replicate number 1) | Growth Rate (U2OS; 24 h, replicate number 2) | Growth Rate (Fibroblast; 24 h, replicate number 1) | Growth Rate (Fibroblast; 6 h, replicate number 2) | Growth Rate (Fibroblast; 18 h, replicate number 1) | Growth Rate (HEK-293T; 0 h, replicate number 2) | Growth Rate (Fibroblast; 12 h, replicate number 2) | Growth Rate (Fibroblast; 18 h, replicate number 2) | also measured
1 | O=C(Nc1cc2cc[nH]c(=O)c2cc1Cl)[C@H]1CNC[C@@H]1c1cccnc1.O=C(O)C(F)(F)F | – | – | – | – | – | – | – | – | – | – | – | – | – | – | Growth Rate (HEK-293T; 0 h, replicate number 1): -0.73
2 | CS(C)(=O)=Nc1ccc(-c2ccc(-c3nc4[nH]c(O[C@@H]5CO[C@H]6[C@@H]5OC[C@H]6O)nc4cc3Cl)cc2)cc1 | 0.01 | 0.36 | 0.94 | 0.65 | 0.92 | 0.97 | 0.77 | 0.98 | 0.75 | – | – | – | – | – | Growth Rate (U2OS; 18 h, replicate number 1): 0.82
3 | C[C@]12CC[C@H](O)CC1=CC[C@@H]1[C@@H]2CC[C@]2(C)C(n3cnc4ccccc43)=CC[C@@H]12 [GALETERONE] | -0.4 | – | – | – | – | – | – | – | 0.01 | -0.64 | 0.61 | – | – | – | Growth Rate (Fibroblast; 0 h, replicate number 1): -0.16; Growth Rate (Fibroblast; 0 h, replicate number 2): 0.96; Growth Rate (Fibroblast; 6 h, replicate number 1): 0.94
4 | CC#CCC(C)[C@H](O)/C=C/[C@@H]1[C@H]2C/C(=C/CCCC(=O)O)C[C@H]2C[C@H]1O (stereo not given in full) [ILOPROST] | – | – | – | – | – | – | 0.86 | – | – | – | – | 0.38 | – | – | Growth Rate (HEK-293T; 0 h, replicate number 1): 0.66
5 | COc1cc(C)c(S(=O)(=O)N(C)CCC(=O)N[C@H]2CC[C@@H](N3CCC4CN(C)CC4C3)CC2)c(C)c1.Cl.Cl (stereo not given in full) | – | 0.78 | 0.87 | 0.97 | 0.88 | 0.99 | – | – | – | – | – | – | – | – | Growth Rate (Fibroblast; 0 h, replicate number 2): -0.7; Growth Rate (Fibroblast; 6 h, replicate number 1): 0.39
6 | N#C/C(=C\c1ccc(O)c(O)c1)C(=O)OCCc1cccs1 | – | – | – | – | 0.63 | 0.94 | 0.8 | 0.93 | 0.86 | -0.28 | 1 | – | 0.78 | 0.58 | Growth Rate (U2OS; 0 h, replicate number 2): 0.41; Growth Rate (Fibroblast; 24 h, replicate number 2): 0.54
7 | Cl.Cl.Nc1nccc(-c2c(-c3ccc(F)cc3)ncn2C2CCCCC2)n1 | – | 0.19 | – | 0.8 | – | 0.84 | 0.95 | 0.81 | – | – | – | 0.73 | – | – | Growth Rate (HEK-293T; 6 h, replicate number 1): 0.63; Growth Rate (HEK-293T; 6 h, replicate number 2): 0.51; Growth Rate (HEK-293T; 12 h, replicate number 1): 0.99; Growth Rate (HEK-293T; 12 h, replicate number 2): 0.49; Growth Rate (HEK-293T; 18 h, replicate number 1): 0.99; Growth Rate (HEK-293T; 18 h, replicate number 2): 0.44; Growth Rate (HEK-293T; 24 h, replicate number 1): 0.95; Growth Rate (HEK-293T; 24 h, replicate number 2): 0.51; Growth Rate (U2OS; 18 h, replicate number 1): 0.93
8 | COc1nc2ccc([C@@](O)(c3ccc(Cl)cc3)c3cncn3C)cc2c(Cl)c1Cc1ccc(-n2cccn2)cc1 [JNJ-53721590] | -1 | -0.25 | – | – | – | – | – | – | – | – | – | -1 | – | – | Growth Rate (HEK-293T; 0 h, replicate number 1): -0.99
9 | C[C@H](CCC(=O)O)[C@H]1CC[C@H]2[C@@H]3CC[C@@H]4C[C@H](O)CC[C@]4(C)[C@H]3C[C@H](O)[C@]12C [DEOXYCHOLIC ACID] | 0.46 | 0.86 | 0.82 | 0.76 | 0.96 | – | 0.86 | – | – | 0.72 | 0.97 | – | 0.78 | 0.69 | Growth Rate (U2OS; 0 h, replicate number 2): 0.84; Growth Rate (U2OS; 18 h, replicate number 1): 0.88; Growth Rate (Fibroblast; 0 h, replicate number 1): 0.67; Growth Rate (Fibroblast; 6 h, replicate number 1): 0.32; Growth Rate (Fibroblast; 24 h, replicate number 2): 0.9
10 | c1ccc(Cn2c(N3CCNCC3)nc3ccccc32)cc1 [LERISETRON] | – | 0.7 | 0.64 | – | – | 0.94 | – | 0.99 | – | -0.44 | – | – | 0.34 | 0.56 | Growth Rate (Fibroblast; 0 h, replicate number 1): -0.1; Growth Rate (Fibroblast; 24 h, replicate number 2): 0.68
11 | COc1cc(-c2cc3ncccc3c(O[C@@H](C)[C@H]3CNC(=O)C3)n2)cc(OC)c1OC | – | 0.94 | – | – | – | – | – | – | – | – | – | – | 0.62 | – | –
12 | CNc1oc(-c2cccc3ccccc23)nc1C#N | – | – | – | – | 0.93 | 0.92 | – | 0.99 | – | – | – | -0.92 | – | – | –
13 | CCN1C(=O)C(c2cccc(C(=O)O)c2)C(=O)N(c2ccccc2)c2cc(C(F)(F)F)ccc21 (stereo not given) | 0.96 | 0.49 | 0.97 | 0.8 | 0.94 | 0.95 | 0.88 | – | 0.95 | -0.94 | 0.92 | – | 0.41 | 0.96 | Growth Rate (U2OS; 0 h, replicate number 2): 0.93; Growth Rate (Fibroblast; 0 h, replicate number 1): -1; Growth Rate (Fibroblast; 0 h, replicate number 2): 0.93; Growth Rate (Fibroblast; 6 h, replicate number 1): 0.7; Growth Rate (Fibroblast; 12 h, replicate number 1): 0.85
14 | Cc1nc2cccnc2n2c(-c3cc([C@@]4(O)CCCOC4)ccc3Cl)nnc12 | – | – | – | – | 0.83 | 0.96 | – | – | 0.81 | -0.24 | 0.97 | – | 0.67 | 0.74 | Growth Rate (Fibroblast; 6 h, replicate number 1): 0.39; Growth Rate (Fibroblast; 24 h, replicate number 2): 0.88
15 | Cc1cnc(Nc2ccc(C(=O)N3CCN(C)CC3)cc2)nc1N[C@@H]1CCC[C@@H]1C(N)=O | 0.86 | 0.41 | -0.77 | 0.4 | 0.38 | 0.45 | 0.34 | 0.52 | 0.96 | 0.31 | – | – | -0.08 | 0.56 | Growth Rate (U2OS; 0 h, replicate number 2): 0.22; Growth Rate (U2OS; 18 h, replicate number 1): 0.31; Growth Rate (Fibroblast; 12 h, replicate number 1): 0.62; Growth Rate (Fibroblast; 24 h, replicate number 2): 0.61
16 | CC(C)(C#N)c1cc(Cn2cncn2)cc(C(C)(C)C#N)c1 [ANASTROZOLE] | -0.51 | – | – | – | – | – | – | – | 0.63 | – | 0.84 | – | – | – | Growth Rate (Fibroblast; 0 h, replicate number 2): -1; Growth Rate (Fibroblast; 12 h, replicate number 1): -1
17 | CC(C)(O)[C@H](F)CN1Cc2cc(NC(=O)c3cnn4cccnc34)c(N3CCOCC3)cc2C1=O | -0.84 | – | – | – | 0.95 | 0.95 | – | 0.93 | – | – | – | 0.15 | – | – | Growth Rate (HEK-293T; 6 h, replicate number 1): 0.89; Growth Rate (HEK-293T; 6 h, replicate number 2): 0.72; Growth Rate (HEK-293T; 12 h, replicate number 1): 1; Growth Rate (HEK-293T; 12 h, replicate number 2): 0.86; Growth Rate (HEK-293T; 18 h, replicate number 2): 0.82; Growth Rate (HEK-293T; 24 h, replicate number 1): 0.96; Growth Rate (HEK-293T; 24 h, replicate number 2): 0.85
18 | O=C(O)c1cccc(C2=C(c3cc(Cl)ccc3OCc3ccc(F)cc3F)CCC2)n1 | – | – | – | – | 1 | – | – | – | – | – | – | – | – | – | Growth Rate (HEK-293T; 0 h, replicate number 1): 0.79
19 | COc1cc(Nc2cnc(C#N)c(O[C@H](C)CN(C)C)n2)ncc1-c1cnn(C)c1 | -1 | – | 0.42 | – | 0.82 | 0.67 | – | 0.43 | – | – | – | -0.51 | – | – | Growth Rate (HEK-293T; 0 h, replicate number 1): -1; Growth Rate (HEK-293T; 6 h, replicate number 1): 0.63; Growth Rate (HEK-293T; 6 h, replicate number 2): -0.18; Growth Rate (HEK-293T; 12 h, replicate number 1): -0.1; Growth Rate (HEK-293T; 12 h, replicate number 2): -0.4; Growth Rate (HEK-293T; 18 h, replicate number 1): -0.17; Growth Rate (HEK-293T; 18 h, replicate number 2): -0.32; Growth Rate (HEK-293T; 24 h, replicate number 1): -0.06; Growth Rate (HEK-293T; 24 h, replicate number 2): -0.22; Growth Rate (U2OS; 0 h, replicate number 2): 0.66
